Source: PubChem BioAssay (NCI)
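Following 48 hours of exposure in 96-well plates, responses at five concentrations were used to interpolate endpoints linearly. GI50 = concentration required for 50% inhibition of growth. TGI denotes the concentration required for complete inhibition of growth.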

Assays:
Assay in all cases: NCI-60 cell line screen, 48 h; in the data active = GI50 below about 0.43 µM; inactive = the rest
NCI/ADR-RES ovarian = test system: NCI/ADR-RES ovarian
HOP-62 NSCLC = test system: HOP-62 NSCLC
TK-10 renal = test system: TK-10 renal
HL-60(TB) leukemia = test system: HL-60(TB) leukemia
SF-539 CNS = test system: SF-539 CNS
T-47D breast = test system: T-47D breast
SF-268 CNS = test system: SF-268 CNS
OVCAR-5 ovarian = test system: OVCAR-5 ovarian
MALME-3M melanoma = test system: MALME-3M melanoma
NCI-H522 lung = test system: NCI-H522 lung
HCC-2998 colon = test system: HCC-2998 colon
HS 578T breast = test system: HS 578T breast
SK-MEL-2 melanoma = test system: SK-MEL-2 melanoma
UACC-62 melanoma = test system: UACC-62 melanoma
UO-31 renal = test system: UO-31 renal
LOX IMVI melanoma = test system: LOX IMVI melanoma
SN12C renal = test system: SN12C renal
IGROV1 ovarian = test system: IGROV1 ovarian
HCT-116 colon = test system: HCT-116 colon
OVCAR-3 ovarian = test system: OVCAR-3 ovarian
COLO 205 colon = test system: COLO 205 colon
KM12 colon = test system: KM12 colon
SR leukemia = test system: SR leukemia
OVCAR-8 ovarian = test system: OVCAR-8 ovarian
UACC-257 melanoma = test system: UACC-257 melanoma
EKVX NSCLC = test system: EKVX NSCLC
RPMI-8226 leukemia = test system: RPMI-8226 leukemia
MDA-MB-435 = test system: MDA-MB-435
CAKI-1 renal = test system: CAKI-1 renal
NCI-H226 lung = test system: NCI-H226 lung
A498 renal = test system: A498 renal
K-562 leukemia = test system: K-562 leukemia
HT29 colon = test system: HT29 colon
SNB-75 CNS = test system: SNB-75 CNS
CCRF-CEM leukemia = test system: CCRF-CEM leukemia
HCT-15 colon = test system: HCT-15 colon
SK-MEL-5 melanoma = test system: SK-MEL-5 melanoma
ACHN renal = test system: ACHN renal
SNB-19 CNS = test system: SNB-19 CNS
MDA-MB-231 breast = test system: MDA-MB-231 breast
SK-OV-3 ovarian = test system: SK-OV-3 ovarian
786-0 renal = test system: 786-0 renal
PC-3 prostate = test system: PC-3 prostate
HOP-92 NSCLC = test system: HOP-92 NSCLC
NCI-H460 lung = test system: NCI-H460 lung
DU-145 prostate = test system: DU-145 prostate
SW-620 colon = test system: SW-620 colon
OVCAR-4 ovarian = test system: OVCAR-4 ovarian
SK-MEL-28 melanoma = test system: SK-MEL-28 melanoma
M14 melanoma = test system: M14 melanoma
MOLT-4 leukemia = test system: MOLT-4 leukemia
RXF 393 renal = test system: RXF 393 renal
NCI-H23 lung = test system: NCI-H23 lung
BT-549 breast = test system: BT-549 breast
U251 CNS = test system: U251 CNS
MCF7 breast = test system: MCF7 breast
A549 NSCLC = test system: A549 NSCLC

C/C(=N\NC(=O)c1ccc(C(C)(C)C)cc1)c1ccc(O)cc1O
> 62200 nM: TGI (SR leukemia)
10300 nM: TGI (NCI-H460 lung)
> 100000 nM: TGI (NCI/ADR-RES ovarian) | TGI (HOP-62 NSCLC) | TGI (TK-10 renal) | TGI (T-47D breast) | TGI (SF-268 CNS) | TGI (OVCAR-5 ovarian) | TGI (NCI-H522 lung) | TGI (HS 578T breast) | TGI (SK-MEL-2 melanoma) | TGI (UACC-62 melanoma) | TGI (UO-31 renal) | TGI (SN12C renal) | TGI (IGROV1 ovarian) | TGI (HCT-116 colon) | TGI (OVCAR-3 ovarian) | TGI (KM12 colon) | TGI (OVCAR-8 ovarian) | TGI (UACC-257 melanoma) | TGI (EKVX NSCLC) | TGI (MDA-MB-435) | TGI (A498 renal) | TGI (K-562 leukemia) | TGI (HCT-15 colon) | TGI (ACHN renal) | TGI (SNB-19 CNS) | TGI (MDA-MB-231 breast) | TGI (SK-OV-3 ovarian) | TGI (PC-3 prostate) | TGI (HOP-92 NSCLC) | TGI (DU-145 prostate) | TGI (SW-620 colon) | TGI (SK-MEL-28 melanoma) | TGI (MOLT-4 leukemia) | TGI (NCI-H23 lung) | TGI (U251 CNS) | TGI (MCF7 breast) | TGI (A549 NSCLC)
13500 nM: TGI (786-0 renal)
14200 nM: TGI (HT29 colon)
> 30900 nM: TGI (CCRF-CEM leukemia)
4740 nM: TGI (SK-MEL-5 melanoma)
> 34100 nM: TGI (COLO 205 colon)
4720 nM: TGI (CAKI-1 renal)
1920 nM: TGI (LOX IMVI melanoma)
61400 nM: TGI (HCC-2998 colon)
11100 nM: TGI (HL-60(TB) leukemia)
> 65800 nM: TGI (BT-549 breast)
inactive: GI50 (HOP-62 NSCLC) 484 nM | GI50 (TK-10 renal) 886 nM | GI50 (HL-60(TB) leukemia) 1080 nM | GI50 (SF-539 CNS) 648 nM | GI50 (T-47D breast) 1070 nM | GI50 (SF-268 CNS) 528 nM | GI50 (OVCAR-5 ovarian) 862 nM | GI50 (MALME-3M melanoma) 1140 nM | GI50 (NCI-H522 lung) 1890 nM | GI50 (HCC-2998 colon) 638 nM | GI50 (HS 578T breast) 3260 nM | GI50 (SK-MEL-2 melanoma) 2380 nM | GI50 (UACC-62 melanoma) 671 nM | GI50 (SN12C renal) 1240 nM | GI50 (IGROV1 ovarian) 572 nM | GI50 (KM12 colon) 511 nM | GI50 (OVCAR-8 ovarian) 673 nM | GI50 (UACC-257 melanoma) 1510 nM | GI50 (EKVX NSCLC) 442 nM | GI50 (RPMI-8226 leukemia) 763 nM | GI50 (MDA-MB-435) 810 nM | GI50 (NCI-H226 lung) 843 nM | GI50 (A498 renal) 1380 nM | GI50 (K-562 leukemia) 568 nM | GI50 (HT29 colon) 689 nM | GI50 (SNB-75 CNS) 1270 nM | GI50 (SK-MEL-5 melanoma) 1470 nM | GI50 (ACHN renal) 491 nM | GI50 (SNB-19 CNS) 2360 nM | GI50 (MDA-MB-231 breast) 791 nM | GI50 (SK-OV-3 ovarian) 1060 nM | GI50 (786-0 renal) 985 nM | GI50 (PC-3 prostate) 1080 nM | GI50 (HOP-92 NSCLC) 4220 nM | GI50 (DU-145 prostate) 705 nM | GI50 (SW-620 colon) 602 nM | GI50 (SK-MEL-28 melanoma) 1670 nM | GI50 (M14 melanoma) 532 nM | GI50 (RXF 393 renal) 2110 nM | GI50 (NCI-H23 lung) 1180 nM | GI50 (BT-549 breast) 1830 nM | GI50 (U251 CNS) 615 nM | GI50 (MCF7 breast) 628 nM | GI50 (A549 NSCLC) 751 nM
17900 nM: TGI (SNB-75 CNS)
active: GI50 (NCI/ADR-RES ovarian) 416 nM | GI50 (UO-31 renal) 377 nM | GI50 (LOX IMVI melanoma) 318 nM | GI50 (HCT-116 colon) 298 nM | GI50 (OVCAR-3 ovarian) 309 nM | GI50 (COLO 205 colon) 386 nM | GI50 (SR leukemia) 379 nM | GI50 (CAKI-1 renal) 392 nM | GI50 (CCRF-CEM leukemia) 331 nM | GI50 (HCT-15 colon) 396 nM | GI50 (NCI-H460 lung) 347 nM | GI50 (OVCAR-4 ovarian) 306 nM | GI50 (MOLT-4 leukemia) 344 nM
> 59900 nM: TGI (RPMI-8226 leukemia)
7340 nM: TGI (M14 melanoma)
45200 nM: TGI (MALME-3M melanoma)
10200 nM: TGI (RXF 393 renal)
14000 nM: TGI (NCI-H226 lung)
> 70400 nM: TGI (SF-539 CNS)
